Reference: US7265129B2, “Anti-infective biaryl compounds” (priority 2002, dated 2007)

How the values were obtained:
B. cereus ATCC 11778 = experiment: MIC, NCCLS broth microdilution, B. cereus; type: cell-based, Bacillus cereus
Excerpt: (§1) It vitro biological activity data were collected for a variety of microorganisms, including Bacillus cereus (ATCC 11778), Staphylococcus aureus (ATCC 33591; ATCC 27660, a methicillin resistant strain (MRSA); ATCC 13709, a methicillin sensitive strain (MSSA)), Enterococcus faecalis (ATCC 29212), and Streptococcus pneumoniae (ATCC 49619). Additionally, antifungal activity data were collected for Candida albicans (ATCC 38247).
(§2) Compounds according to this invention were screened for their in vitro activities against selected species of bacteria and fungi. The minimal inhibition concentration (MIC) of these compounds was determined using the National Committee for Clinical Laboratory Standards (NCCLS) broth microdilution assay in microtiter plates, as set forth in: (1) the guidelines of the National Committee for Clinical Laboratory Standards (NCCLS) Document M7-A4 (NCCLS, 1997); (2) the guidelines of the National Committee for Clinical Laboratory Standards (NCCLS) Document M11-A4 (NCCLS, 1997); and (3) the guidelines and reference method of the National Committee for Clinical Laboratory Standards (NCCLS) Document M27-T (NCCLS, 1995). For antifungal assays, the method recommended in Murray, P R., 1995 Manual of Clinical Microbiology (ASM Press, Washington, D.C.), was employed.

C. albicans ATCC 38247 = experiment: MIC, antifungal assay, C. albicans; type: cell-based, Candida albicans
Excerpt: as §1, §2

E. faecalis ATCC 29212 = experiment: MIC, NCCLS broth microdilution, E. faecalis; type: cell-based, Enterococcus faecalis
Excerpt: as §1, §2

S. aureus ATCC 13709 = experiment: MIC, NCCLS broth microdilution, S. aureus MSSA; type: cell-based, Staphylococcus aureus; settings: S. aureus ATCC 13709, methicillin sensitive strain (MSSA)
Excerpt: as §1, §2

S. aureus ATCC 27660 = experiment: MIC, NCCLS broth microdilution, S. aureus MRSA; type: cell-based, Staphylococcus aureus; settings: S. aureus ATCC 27660, methicillin resistant strain (MRSA)
Excerpt: as §1, §2

S. aureus ATCC 33591 = experiment: MIC, NCCLS broth microdilution, S. aureus ATCC 33591; type: cell-based, Staphylococcus aureus
Excerpt: as §1, §2

S. pneumoniae ATCC 49619 = experiment: MIC, NCCLS broth microdilution, S. pneumoniae; type: cell-based, Streptococcus pneumoniae
Excerpt: as §1, §2

Row | SMILES | Minimum Inhibitory Concentration (MIC), organism A (B. cereus ATCC 11778) | Minimum Inhibitory Concentration (MIC), organism B (C. albicans ATCC 38247) | Minimum Inhibitory Concentration (MIC), organism C (E. faecalis ATCC 29212) | Minimum Inhibitory Concentration (MIC), organism D (S. aureus ATCC 13709) | Minimum Inhibitory Concentration (MIC), organism E (S. aureus ATCC 27660) | Minimum Inhibitory Concentration (MIC), organism F (S. aureus ATCC 33591) | Minimum Inhibitory Concentration (MIC), organism G (S. pneumoniae ATCC 49619)
1 | Cn1cc(NC(=O)c2cc(NC(=O)c3ccc(Cl)cc3F)cn2CCCN(CCO)CCO)cc1-c1nc2ccccc2[nH]1 [Compound A-36] | ++ (4 < MIC < 12 μg/mL) | + (12 ≦ MIC ≦ 32 μg/mL) | +++ (MIC ≦ 4 μg/mL) | ++ (4 < MIC < 12 μg/mL) | +++ (MIC ≦ 4 μg/mL) | +++ (MIC ≦ 4 μg/mL) | +++ (MIC ≦ 4 μg/mL)
2 | CN(C)CCCn1cc(NC(=O)c2cc3ccccc3cn2)cc1C(=O)Nc1cc(-c2nc3ncncc3[nH]2)n(C)c1 [Compound A-15] | + (12 ≦ MIC ≦ 32 μg/mL) | >32 µg/mL | ++ (4 < MIC < 12 μg/mL) | + (12 ≦ MIC ≦ 32 μg/mL) | + (12 ≦ MIC ≦ 32 μg/mL) | + (12 ≦ MIC ≦ 32 μg/mL) | +++ (MIC ≦ 4 μg/mL)
3 | Cn1cc(NC(=O)c2cc3ccccc3cn2)cc1C(=O)Nc1cc(-c2nc3ccncc3[nH]2)n(C)c1 [Compound A-14] | +++ (MIC ≦ 4 μg/mL) | >32 µg/mL | +++ (MIC ≦ 4 μg/mL) | +++ (MIC ≦ 4 μg/mL) | +++ (MIC ≦ 4 μg/mL) | +++ (MIC ≦ 4 μg/mL) | +++ (MIC ≦ 4 μg/mL)
4 | Cn1cc(NC(=O)c2cc(NC(=O)c3ccc(Cl)cc3F)cn2CCCN2CCCCC2)cc1-c1nc2ccccc2[nH]1 [Compound A-32] | +++ (MIC ≦ 4 μg/mL) | + (12 ≦ MIC ≦ 32 μg/mL) | +++ (MIC ≦ 4 μg/mL) | +++ (MIC ≦ 4 μg/mL) | +++ (MIC ≦ 4 μg/mL) | +++ (MIC ≦ 4 μg/mL) | +++ (MIC ≦ 4 μg/mL)
5 | CN(C)CCCn1cc(NC(=O)c2ccc(Cl)cc2F)cc1C(=O)Nc1cc(-c2nc3cncnc3[nH]2)n(C)c1 [Compound A-46] | +++ (MIC ≦ 4 μg/mL) | >32 µg/mL | +++ (MIC ≦ 4 μg/mL) | +++ (MIC ≦ 4 μg/mL) | +++ (MIC ≦ 4 μg/mL) | +++ (MIC ≦ 4 μg/mL) | +++ (MIC ≦ 4 μg/mL)
6 | CN(C)CCCn1cc(NC(=O)c2cc3ccccc3cn2)cc1C(=O)Nc1cc(-c2nc3ccncc3[nH]2)n(C)c1 [Compound A-13] | +++ (MIC ≦ 4 μg/mL) | >32 µg/mL | +++ (MIC ≦ 4 μg/mL) | +++ (MIC ≦ 4 μg/mL) | +++ (MIC ≦ 4 μg/mL) | +++ (MIC ≦ 4 μg/mL) | +++ (MIC ≦ 4 μg/mL)
7 | Cn1cc(NC(=O)c2cc3ccccc3cn2)cc1C(=O)Nc1cc(-c2nc3ccc(OCCN4CCOCC4)cc3[nH]2)n(C)c1 [Compound A-10] | +++ (MIC ≦ 4 μg/mL) | >32 µg/mL | +++ (MIC ≦ 4 μg/mL) | +++ (MIC ≦ 4 μg/mL) | +++ (MIC ≦ 4 μg/mL) | +++ (MIC ≦ 4 μg/mL) | +++ (MIC ≦ 4 μg/mL)
8 | CC1CCN(CCCn2cc(NC(=O)c3ccc(Cl)cc3F)cc2C(=O)Nc2cc(-c3nc4ccccc4[nH]3)n(C)c2)CC1 [Compound A-38] | +++ (MIC ≦ 4 μg/mL) | + (12 ≦ MIC ≦ 32 μg/mL) | +++ (MIC ≦ 4 μg/mL) | +++ (MIC ≦ 4 μg/mL) | +++ (MIC ≦ 4 μg/mL) | +++ (MIC ≦ 4 μg/mL) | +++ (MIC ≦ 4 μg/mL)
9 | COc1cc(F)ccc1C(=O)Nc1cc(C(=O)Nc2cc(-c3nc4ccccc4[nH]3)n(C)c2)n(CCCN(C)C)c1 [Compound A-20] | +++ (MIC ≦ 4 μg/mL) | + (12 ≦ MIC ≦ 32 μg/mL) | +++ (MIC ≦ 4 μg/mL) | +++ (MIC ≦ 4 μg/mL) | +++ (MIC ≦ 4 μg/mL) |  | +++ (MIC ≦ 4 μg/mL)
10 | Cn1cc(NC(=O)c2cc(NC(=O)c3sc4ccccc4c3Cl)cn2CCC[n+]2ccccc2)cc1-c1nc2ccccc2[nH]1 [Compound A-27] | + (12 ≦ MIC ≦ 32 μg/mL) | + (12 ≦ MIC ≦ 32 μg/mL) | + (12 ≦ MIC ≦ 32 μg/mL) | ++ (4 < MIC < 12 μg/mL) | ++ (4 < MIC < 12 μg/mL) | ++ (4 < MIC < 12 μg/mL) | + (12 ≦ MIC ≦ 32 μg/mL)
11 | CN(C)CCCn1cc(NC(=O)c2sc3ccccc3c2Cl)cc1C(=O)Nc1cc(-c2nc3ncccc3[nH]2)n(C)c1 [Compound A-28] | +++ (MIC ≦ 4 μg/mL) | >32 µg/mL | +++ (MIC ≦ 4 μg/mL) | +++ (MIC ≦ 4 μg/mL) | +++ (MIC ≦ 4 μg/mL) | +++ (MIC ≦ 4 μg/mL) | +++ (MIC ≦ 4 μg/mL)
12 | Cn1cc(NC(=O)c2cc(NC(=O)c3ccc(Cl)cc3F)cn2CCCN2CCOCC2)cc1-c1nc2cccnc2[nH]1 [Compound A-40] | +++ (MIC ≦ 4 μg/mL) | >32 µg/mL | +++ (MIC ≦ 4 μg/mL) | +++ (MIC ≦ 4 μg/mL) | +++ (MIC ≦ 4 μg/mL) | +++ (MIC ≦ 4 μg/mL) | +++ (MIC ≦ 4 μg/mL)
13 | Cn1cc(NC(=O)c2cc(NC(=O)c3ccc(Cl)cc3F)cn2CCCN2CCOCC2)cc1-c1nc2ccccc2[nH]1 [Compound A-37] | +++ (MIC ≦ 4 μg/mL) | >32 µg/mL | +++ (MIC ≦ 4 μg/mL) | +++ (MIC ≦ 4 μg/mL) | +++ (MIC ≦ 4 μg/mL) | +++ (MIC ≦ 4 μg/mL) | +++ (MIC ≦ 4 μg/mL)
14 | Cn1cc(NC(=O)c2cc3ccccc3cn2)cc1C(=O)Nc1cc(-c2nc3cc(O)ccc3[nH]2)n(C)c1 [Compound A-6] | +++ (MIC ≦ 4 μg/mL) | >32 µg/mL | +++ (MIC ≦ 4 μg/mL) | +++ (MIC ≦ 4 μg/mL) | +++ (MIC ≦ 4 μg/mL) | +++ (MIC ≦ 4 μg/mL) | +++ (MIC ≦ 4 μg/mL)
15 | CN(C)CCCn1cc(NC(=O)c2sc3ccccc3c2Cl)cc1C(=O)Nc1cc(-c2nc3ccccc3[nH]2)n(C)c1 [Compound A-22] | +++ (MIC ≦ 4 μg/mL) | + (12 ≦ MIC ≦ 32 μg/mL) | ++ (4 < MIC < 12 μg/mL) | ++ (4 < MIC < 12 μg/mL) | ++ (4 < MIC < 12 μg/mL) |  | ++ (4 < MIC < 12 μg/mL)
16 | COc1cc(Cl)ccc1C(=O)Nc1cc(C(=O)Nc2cc(-c3nc4ccccc4[nH]3)n(C)c2)n(CCCN(C)C)c1 [Compound A-21] | +++ (MIC ≦ 4 μg/mL) | + (12 ≦ MIC ≦ 32 μg/mL) | +++ (MIC ≦ 4 μg/mL) | ++ (4 < MIC < 12 μg/mL) | +++ (MIC ≦ 4 μg/mL) |  | +++ (MIC ≦ 4 μg/mL)
